# Source: US20070191437A1, “Continuous Dosing Regimen” (priority 2003, published 2007)
# Marks after values point to notes of the source that are not given here.
# Key:
# C26 colon tumors = C26 colon tumors grown in the flank of CDF-1 mice; type: in vivo
# [1] = tested on: NCI-H460 human non-small cell lung carcinoma; assay: NCI-H460 xenograft model; type: in vivo; details: for activity: comparators
# Excerpt: NCI-H460 is a human non-small cell lung carcinoma derived cell line. It is MDR negative, has wild type p53, and contains an oncogenic K-ras mutation.
# [2] = tested on: HCT-15 human colon carcinoma; assay: HCT-15 human colon carcinoma xenografts; type: in vivo; details: for efficacy in inhibiting tumor growth: MDR positive line
# Excerpt: HCT-15 is a human colon carcinoma derived cell line. It is MDR positive, and expresses both mutant p53 and oncogenic K-ras. The HCT-15 cell line has one of the highest levels of mdr-1/P-glycoprotein expression of cells from the NCI tumor cell line panel.
# HT-29 colon carcinoma = assay: Staged human tumor xenograft, HT-29; type: in vivo; details: oral 75 mg/kg/d QD, d 10-14, 20-24
# Excerpt: (§1) (2-((hydroxyphenyl)amino)pyrid-3-yl)-4-methoxybenzenesulfonamide inhibited the growth of a variety of human tumor xenografts that were allowed to grow into established tumors prior to the initiation of treatment. As summarized below, activity was seen against established tumors derived from colon, breast and lung carcinomas. (2-((4-hydroxyphenyl)amino)pyrid-3-yl)-4-methoxybenzenesulfonamide was also active against a human pancreatic tumor xenograft grown in the orthotopic site.
# Calu-6 lung carcinoma = assay: Staged human tumor xenograft, Calu-6; type: in vivo; details: oral 75 mg/kg/d QD, d 10-14, 20-24
# Excerpt: as §1
# [3] = tested on: MDA-MB-468 breast carcinoma; assay: Staged human tumor xenograft, MDA-MB-468; type: in vivo
# Excerpt: as §1
# [4] = Clinical single dose and 5-day repeated dose study in 57 cancer subjects; type: in vivo, human
# Experimental: (2-((4-hydroxyphenyl)amino)pyrid-3-yl)-4-methoxybenzenesulfonamide was evaluated in 57 cancer subjects in single dose (16 subjects) and 5-day repeated dose regimens (41 subjects). The doses administered in the single dose segment were 80 to 480 mg/m^2/day. In the 5-day repeated dose regimen (2-((4-hydroxyphenyl)amino)pyrid-3-yl)-4-methoxybenzenesulfonamide was given at 30 to 240 mg/m^2/day for a single cycle. […] Adverse drug reactions from the single dose and 5-day repeated dose segments included nausea and vomiting, diarrhea, epigastric pain, ileus and evidence of peripheral neuropathy. For the single dose segment, the dose limiting toxicity (DLT) was Grade 3 peripheral neuropathy in 1 of 5 subjects at 480 mg/m^2/day. In the 5-day repeated dose regimen the dose limiting toxicities were Grade 3 peripheral neuropathy in 1 of 4 subjects at 210 mg/m^2/day and Grade 4 intestinal paralysis in 1 of 4 subjects at 210 mg/m^2/day and in 1 of 6 subjects at 240 mg/m^2/day.
# [5] = Clinical 7-day QD regimen, MTD determination; type: in vivo
# Experimental: In the 7-day QD regimen, the 250 mg QD dose has been determined to be the MTD, as dose limiting toxicities of peripheral neuropathy/ileus were reported in 2 of 6 subjects at the 300 mg QD dose.
# [6] = Clinical 21-day QD regimen, MTD determination; type: in vivo
# [7] = Clinical safety review, adverse events by grade; type: in vivo, human
# Experimental: For 134 patients tested, at doses of about 200 mg QD, 250 mg QD, 300 mg QD, 125 mg BID, 150 mg BID, and 175 mg BID, 16 reported anemia, of which 11 were Grades I or II and 5 were Grades (III or IV); 1 reported Grade I or II alpoecia; 8 reported Grade I or II neutropenia; and none reported fluid retention, for which Grade I is defined as mild, Grade II is defined as moderate, Grade III is defined as severe, Grade IV is defined as life threatening.
# [8] = Calu-6 flank xenograft model in male scid mice, HPM with docetaxel (Example 1); type: in vivo; details: male, scid, mouse, in vivo
# Experimental: (§2) Male scid mice (Charles River Labs.) were injected subcutaneously with 0.2 mL of 2×10^6 Calu-6 cells (1:1 with matrigel) on study day 0. The cellular implantation site was the right flank, and all mice were ear tagged. On day 13, tumors were size matched to 247 mm^3 and animals were placed into the therapy groups outlined in the study design below. All treatments were initiated on day 13 post tumor inoculation. The tumors were measured with calipers 2 times per week after tumors were palpable. Tumor volumes were calculated according to the formula V=L×W^2/2 (V: volume, mm^3; L: length, mm. W: width, mm). Mouse group weights were taken 2 times per week to monitor weight loss from toxicity or excessive tumor burden. The mice were humanely euthanized when the tumor volumes reached a predetermined size. The study design was as follows:
# (§3) 1. HPM vehicle and docetaxel at 20 mg/kg/day.
# (§4) 2. HPM vehicle and docetaxel at 10 mg/kg/day.
# (§5) 3. HPM at 100 mg/kg/day and docetaxel vehicle.
# (§6) 4. HPM at 75 mg/kg/day and docetaxel vehicle.
# (§7) 5. HPM at 100 mg/kg/day and docetaxel at 20 mg/kg/day.
# (§8) 6. HPM at 100 mg/kg/day and docetaxel at 10 mg/kg/day.
# (§9) 7. HPM at 75 mg/kg/day and docetaxel at 20 mg/kg/day.
# (§10) 8. HPM at 75 mg/kg/day and docetaxel at 10 mg/kg/day.
# (§11) 9. HPM vehicle and docetaxel vehicle.
# (§12) HPM was dosed orally on a (q.d.×5, 5 days off)×2 schedule. The drug was formulated in 1% HCl, 4% ethanol, and 95% D5W. Docetaxel was dosed intravenously, (q.10d.)×2 and formulated in saline.
# MiaPaCa2 pancreatic = MiaPaCa2 pancreatic xenograft model, combination with gemcitabine; type: in vivo; details: in combination with gemcitabine
# [9] = tested on: M5076 murine reticulum cell sarcoma; details: for response of the model to the drug / ILS: comparator drugs, dose not given
# Calu-6 lung = Calu-6 lung subcutaneous flank xenografts in male nude mice, HPM with cisplatin (Example 6); type: in vivo; details: 10 mg/kg/day i.p., q.d × 1
# Experimental: In a non-small cell lung cancer study, tumor cells were inoculated s.c. into male nude mice on day 0. On day 10, mice bearing established tumors were size matched at about 233 mm^3 and placed into the following groups: • 1. […]., 5 days on, 5 days off ×2) • 2. PM-75 mg/kg/day (p.o., q.d., 5 days on, 5 days off×2) • 3. PM-0 mg/kg/day (p.o., q.d., 5 days on, 5 days off ×2) • 4. […] Cisplatin 0 mg/kg/day (ip, qd ×1) • 6. […] Combination Therapy Vehicles
# Calu-6 cells = assay: Calu-6 flank xenograft model in male scid mice, HPM with docetaxel (Example 1); type: in vivo; details: docetaxel q.10d. at 20 mg/kg/day
# Experimental: as §2, §3, §4, §5, §6, §7, §8, §9, §10, §11, §12
# MDA-MB-468 breast = MDA-MB-468 breast subcutaneous flank xenografts in female nude mice, HPM with docetaxel (Example 3); type: in vivo; details: 33.3 mg/kg/day i.v., q.d × 1
# Experimental: Tumor cells derived from serially passaged tumor fragments were inoculated s.c. in female nude mice on day 0. On day 10, mice bearing established tumors were size matched at about 231 mm^3 and divided into the following groups:
# 1. HPM at 100 mg/kg/day (p.o., q.d., 5 days on, 5 days off ×2)
# 2. HPM at 75 mg/kg/day (p.o., q.d., 5 days on, 5 days off ×2)
# 3. HPM at 0 mg/kg/day (p.o., q.d., 5 days on, 5 days off ×2)
# 4. Docetaxel at 33.3 mg/kg/day (i.v., q.d. ×1)
# 5. Docetaxel at 0 mg/kg/day (i.v., q.d. ×1)
# 6. Combination therapy: HPM at 100 mg/kg/day and docetaxel at 33.3 mg/kg/day
# 7. Combination therapy: HPM at 75 mg/kg/day and docetaxel at 33.3 mg/kg/day
# [10] = target: biotinylated bovine brain tubulin; details: competition of [3H]colchicine
# [11] = 5-day repeated dose regimen, 210 mg/m^2/day
# [12] = 134 patients, 200-300 mg QD, 125-175 mg BID
smiles,measurement,setting,value
"COc1ccc(S(=O)(=O)Nc2cccnc2Nc2ccc(O)cc2)cc1 [ABT-751, N-(2-((4-Hydroxyphenyl)amino)pyridin-3-yl)-4-methoxybenzenesulfonamide]",antitumor activity,C26 colon tumors; 5-day schedule,only marginally active
same,antitumor activity,"C26 colon tumors; extended dosing, equivalent to BCNU at the MTD",significant antitumor response
same,"T/C, mean tumor volume at day 13",[1]; day 13 vs vehicle control,58%
same,ILS (delay in tumor growth),[1]; in vivo,32%
same,% ILS,"[2]; 50 mg/kg/d PO, QD, days 1-8",34%
same,T/C (no. trials),"[2]; 50 mg/kg/d PO, QD, days 1-8",50(2)
same,efficacy in inhibiting tumor growth,[2],effective in inhibiting tumor growth
same,% ILS,HT-29 colon carcinoma,50%
same,% ILS,Calu-6 lung carcinoma,58%
same,% T/C,"[3]; oral 50 mg/kg/d QD, d 1-21",46%
same,% T/C,"[3]; oral 75 mg/kg/d QD, d 10-14, 20-24",33%
same,% T/C,"[3]; oral 100 mg/kg/d QD, d 10-14, 20-24",25%
same,"dose limiting toxicity: Grade 3 peripheral neuropathy, subjects",[4]; [11],1 of 4
same,"dose limiting toxicity: Grade 4 intestinal paralysis, subjects",[4]; [11],1 of 4
same,"dose limiting toxicity: Grade 4 intestinal paralysis, subjects","[4]; 5-day repeated dose regimen, 240 mg/m^2/day",1 of 6
same,AUC versus dose,[4]; range of 30 to 480 mg/m^2/day,increased proportionally with dose
same,accumulation,[4]; range of 30 to 480 mg/m^2/day,no apparent accumulation
same,"dose limiting toxicity: Grade 3 peripheral neuropathy, subjects","[4]; single dose segment, 480 mg/m^2/day",1 of 5
same,MTD,[5]; 7-day QD regimen,250 mg
same,"dose limiting toxicities of peripheral neuropathy/ileus, subjects","[5]; human, in vivo, 7 days",2 of 6
same,MTD,[6]; QD regimen given for 21 days,200 mg
same,"dose limiting toxicities of fatigue, anorexia and suspect small bowel obstruction, subjects","[6]; human, in vivo, 21 days",2/3
same,patients who reported Grade I or II alopecia,[7]; [12],1
same,patients who reported Grade I or II neutropenia,[7]; [12],8
same,patients who reported anemia,[7]; [12],16
same,patients who reported fluid retention,[7]; [12],none
same,patients with anemia of Grades I or II,[7]; [12],11
same,patients with anemia of Grades III or IV,[7]; [12],5
same,"myelosuppression, renal or hepatic toxicity",[7]; review of the safety data of the three studies,"no significant myelosuppression, renal or hepatic toxicity"
same,MTD,"[8]; po, HPM orally (q.d.×5, 5 days off)×2, mice",100 mg/kg/day
same,antitumor activity compared to single agent alone,MiaPaCa2 pancreatic,increase in antitumor activity
same,ILS (percent increase in life span),[9]; 150 mg/kg orally once a day for 5 days,42%
same,approximate MTD,[9]; orally once a day for 5 days,~150 mg/kg
"N.N.[Cl][Pt][Cl] [Cisplatin, cisplatin]",% TGD^a: median % TGD increase compared to vehicle treated controls in time to 1 cc,Calu-6 lung,71*** %
O=P1(N(CCCl)CCCl)NCCCO1 (centres unmarked) [cyclophosphamide],response of the model to the drug,[9],sensitive
CC(=O)O[C@@]12CO[C@@H]1C[C@H](O)[C@@]1(C)C(=O)[C@H](O)C3=C(C)[C@@H](OC(=O)[C@H](O)[C@@H](NC(=O)OC(C)(C)C)c4ccccc4)C[C@@](O)([C@@H](OC(=O)c4ccccc4)[C@H]21)C3(C)C [docetaxel],MTD,"[8]; intravenous, docetaxel on a q.10d.×2 schedule, mice",25 mg/kg/day
same,maximum wt loss,Calu-6 cells,8%
same,% TGD^a: median % TGD increase compared to vehicle treated controls in time to 1 cc,MDA-MB-468 breast,67*** %
COc1cccc2c1C(=O)c1c(O)c3c(c(O)c1C2=O)C[C@@](O)(C(=O)CO)C[C@@H]3O[C@H]1C[C@H](N)[C@H](O)[C@H](C)O1 [doxorubicin],ILS,[9],13%
"CC(=O)O[C@H]1C(=O)[C@@]2(C)[C@H]([C@H](OC(=O)c3ccccc3)[C@]3(O)C[C@H](OC(=O)[C@H](O)[C@@H](NC(=O)c4ccccc4)c4ccccc4)C(C)=C1C3(C)C)[C@]1(OC(C)=O)CO[C@@H]1C[C@@H]2O [paclitaxel, reference compound]",antitumor activity,"C26 colon tumors; comparator, dose not given",not efficacious
same,activity,[1],lacked activity
same,efficacy in inhibiting tumor growth,[2],not efficacious
same,response of the model to the drug,[9],resistant
CC[C@]1(O)C[C@@H]2CN(CCc3c([nH]c4ccccc34)[C@@](C(=O)OC)(c3cc4c(cc3OC)N(C)[C@H]3[C@@](O)(C(=O)OC)[C@H](OC(C)=O)[C@]5(CC)C=CCN6CC[C@]43[C@@H]65)C2)C1 [vinblastine],Ki,[10],> 100 µM
"CC[C@]1(O)C[C@H]2CN(CCc3c([nH]c4ccccc34)[C@@](C(=O)OC)(c3cc4c(cc3OC)N(C=O)[C@H]3[C@@](O)(C(=O)OC)[C@H](OC(C)=O)[C@]5(CC)C=CCN6CC[C@]43[C@@H]65)C2)C1 [vincristine, reference compound]",activity,[1],lacked activity
same,efficacy in inhibiting tumor growth,[2],not efficacious
same,ILS,[9],17%
